Reference: patent publication US20090054392A1, “NAPHTHYLPYRIMIDINE, NAPHTHYLPYRAZINE AND NAPHTHYLPYRIDAZINE ANALOGS AND THEIR USE AS AGONISTS OF THE WNT-BETA-CATENIN CELLULAR MESSAGING SYSTEM” (Wyeth, priority 2007, published 2009)

Test system: Dkk1-LRP5-TCF-Luciferase
Experiment: Functional Dkk1-LRP5-TCF-Luciferase Assay in U2OS Cells
Settings: for fold induction at 2 µM / fold induction at 20 µM / EC50: Homo sapiens, U2OS; for fold induction at 2 µM: read-out: B = TCF ACTIVITY/DMSO CONTROL Fold induction @ 2.0 uM, 2.0 uM compound; for fold induction at 20 µM: read-out: C = TCF ACTIVITY/DMSO CONTROL Fold induction @ 20.0 uM, 20.0 uM compound; for A = MAX FOLD Induction/DMSO CONTROL: maximum fold induction over DMSO control

Row | EC50 | A = MAX FOLD Induction/DMSO CONTROL | SMILES | fold induction at 2 µM | fold induction at 20 µM
1 |  |  | FC(F)(F)CN[C@H]1CCN(c2nccc(-c3ccc4ccccc4c3)n2)C1 [(3S)-1-[4-(2-naphthyl)pyrimidin-2-yl]-N-(2,2,2-trifluoroethyl)pyrrolidin-3-amine] | 0.83 | 1.38
2 |  |  | N[C@H]1CCN(c2nccc(-c3ccc4ccccc4c3)n2)C1 [(3S)-1-[4-(2-naphthyl)pyrimidin-2-yl]pyrrolidin-3-amine] | 1.48 | 
3 | 2.4 µM |  | O[C@H]1CCCN([C@@H]2CCN(c3nccc(-c4ccc5ccccc5c4)n3)C2)C1 [(3S)-1-{(3R)-1-[4-(2-naphthyl)pyrimidin-2-yl]pyrrolidin-3-yl}piperidin-3-ol] |  | 
4 | 0.93 µM |  | O[C@H]1CCCN([C@H]2CCN(c3nccc(-c4ccc5ccccc5c4)n3)C2)C1 [(3S)-1-{(3S)-1-[4-(2-naphthyl)pyrimidin-2-yl]pyrrolidin-3-yl}piperidin-3-ol] |  | 
5 | 6.8 µM | 3.165 fold | O=CN1CC[C@H](Nc2nccc(-c3ccc4ccccc4c3)n2)C1 [(3S)-3-{[4-(2-naphthyl)pyrimidin-2-yl]amino}pyrrolidine-1-carbaldehyde] | 1.8 | 3.51
6 | 1.52 µM | 2.750 fold | NC(=O)N1CC[C@H](Nc2nccc(-c3ccc4ccccc4c3)n2)C1 [(3S)-3-{[4-(2-naphthyl)pyrimidin-2-yl]amino}pyrrolidine-1-carboxamide] | 2.05 | 2.94
7 |  | 2.260 fold | CN(C)[C@H]1CCN(C[C@H]2CCN(c3nccc(-c4ccc5ccccc5c4)n3)C2)C1 [(3S)—N,N-dimethyl-1-({(3R)-1-[4-(2-naphthyl)pyrimidin-2-yl]pyrrolidin-3-yl}methyl)pyrrolidin-3-amine] | 2.55 | 0.02
8 |  | 1.660 fold | CN(C)[C@H]1CCN(C[C@@H]2CCN(c3nccc(-c4ccc5ccccc5c4)n3)C2)C1 [(3S)—N,N-dimethyl-1-({(3S)-1-[4-(2-naphthyl)pyrimidin-2-yl]pyrrolidin-3-yl}methyl)pyrrolidin-3-amine] | 2.08 | 0.01
9 | 3 µM | 3.390 fold | CN(C)[C@H]1CCN(c2nccc(-c3ccc4ccccc4c3)n2)C1 [(3S)—N,N-dimethyl-1-[4-(2-naphthyl)pyrimidin-2-yl]pyrrolidin-3-amine] |  | 0.08
10 |  | 2.115 fold | CN(C)[C@H]1CCN(C(=O)[C@H]2CCCN2c2nccc(-c3ccc4ccccc4c3)n2)C1 [(3S)—N,N-dimethyl-1-{1-[4-(2-naphthyl)pyrimidin-2-yl]-D-prolyl}pyrrolidin-3-amine] | 1.05 | 2.43
11 |  | 2.175 fold | CN(C)[C@H]1CCN(C(=O)[C@@H]2CCCN2c2nccc(-c3ccc4ccccc4c3)n2)C1 [(3S)—N,N-dimethyl-1-{1-[4-(2-naphthyl)pyrimidin-2-yl]-L-prolyl}pyrrolidin-3-amine] | 1.16 | 3.37
12 | 2.7 µM | 2.945 fold | CN(C)C(=O)N1CC[C@H](Nc2nccc(-c3ccc4ccccc4c3)n2)C1 [(3S)—N,N-dimethyl-3-{[4-(2-naphthyl)pyrimidin-2-yl]amino}pyrrolidine-1-carboxamide] | 2.05 | 3.05
13 | 3.96 µM | 2.050 fold | CN(C)S(=O)(=O)N1CC[C@H](Nc2nccc(-c3ccc4ccccc4c3)n2)C1 [(3S)—N,N-dimethyl-3-{[4-(2-naphthyl)pyrimidin-2-yl]amino}pyrrolidine-1-sulfonamide] | 1.09 | 2.01
14 |  |  | c1ccc2cc(-c3ccnc(N4CC[C@H](NCCN5CCOCC5)C4)n3)ccc2c1 [(3S)—N-(2-morpholin-4-ylethyl)-1-[4-(2-naphthyl)pyrimidin-2-yl]pyrrolidin-3-amine] | 1.39 | 0.91
15 |  | 2.690 fold | CC(C)(C)N[C@H]1CCN(c2nccc(-c3ccc4ccccc4c3)n2)C1 [(3S)—N-(tert-butyl)-1-[4-(2-naphthyl)pyrimidin-2-yl]pyrrolidin-3-amine] | 2.39 | 
16 |  |  | CN(C1CCCCC1)[C@H]1CCN(c2nccc(-c3ccc4ccccc4c3)n2)C1 [(3S)—N-cyclohexyl-N-methyl-1-[4-(2-naphthyl)pyrimidin-2-yl]pyrrolidin-3-amine] | 1.22 | 0.01
17 |  | 2.500 fold | CCNC(=O)N1CC[C@H](Nc2nccc(-c3ccc4ccccc4c3)n2)C1 [(3S)—N-ethyl-3-{[4-(2-naphthyl)pyrimidin-2-yl]amino}pyrrolidine-1-carboxamide] | 2.49 | 2.81
18 |  |  | CN[C@H]1CCN(c2nccc(-c3ccc4ccccc4c3)n2)C1 [(3S)—N-methyl-1-[4-(2-naphthyl)pyrimidin-2-yl]pyrrolidin-3-amine] | 1.75 | 
19 |  |  | N[C@H]1CCN([C@@H]2CCN(c3nccc(-c4ccc5ccccc5c4)n3)C2)C1 [(3S,3′R)-1′-[4-(2-naphthyl)pyrimidin-2-yl]-1,3′-bipyrrolidin-3-amine] | 1.2 | 
20 |  |  | O[C@H]1CCN([C@@H]2CCN(c3nccc(-c4ccc5ccccc5c4)n3)C2)C1 [(3S,3′R)-1′-[4-(2-naphthyl)pyrimidin-2-yl]-1,3′-bipyrrolidin-3-ol] |  | 3
21 | 1.11 µM | 3.175 fold | CN(C)[C@H]1CCN([C@@H]2CCN(c3nccc(-c4ccc5ccccc5c4)n3)C2)C1 [(3S,3′R)-N,N-dimethyl-1′-[4-(2-naphthyl)pyrimidin-2-yl]-1,3′-bipyrrolidin-3-amine] | 2.64 | 
22 |  |  | O[C@H]1CCN([C@H]2CCN(c3nccc(-c4ccc5ccccc5c4)n3)C2)C1 [(3S,3′S)-1′-[4-(2-naphthyl)pyrimidin-2-yl]-1,3′-bipyrrolidin-3-ol] | 2.1 | 
23 |  | 2.030 fold | CN(C)[C@H]1CCN([C@H]2CCN(c3nccc(-c4ccc5ccccc5c4)n3)C2)C1 [(3S,3′S)-N,N-dimethyl-1′-[4-(2-naphthyl)pyrimidin-2-yl]-1,3′-bipyrrolidin-3-amine] | 2.47 | 0.02
24 |  |  | c1ccc2cc(-c3ccnc(N4C[C@H]5CNC[C@H]5C4)n3)ccc2c1 [(3aR*,6aS*)-2-[4-(2-naphthyl)pyrimidin-2-yl]octahydropyrrolo[3,4-c]pyrrole] | 1.73 | 0.01
25 |  |  | c1ccc2cc(-c3ccnc(N4CC[C@@H]5CNC[C@@H]5C4)n3)ccc2c1 [(3aR,7aS)-5-[4-(2-naphthyl)pyrimidin-2-yl]octahydro-1H-pyrrolo[3,4-c]pyridine] | 1.8 | 
26 | 4.51 µM | 1.935 fold | O=C1CCCN1[C@@H]1CCN(c2nccc(-c3ccc4ccccc4c3)n2)C1 [(3′R)-1′-[4-(2-naphthyl)pyrimidin-2-yl]-1,3′-bipyrrolidin-2-one] | 1.43 | 2.12
27 |  | 2.760 fold | c1ccc2cc(-c3ccnc(N4CC[C@@H](N5CCCC5)C4)n3)ccc2c1 [(3′R)-1′-[4-(2-naphthyl)pyrimidin-2-yl]-1,3′-bipyrrolidine] | 1.38 | 2.62
